Experimental data taken from patent US20230116703A1, “NOVEL ERGOLINES AND METHODS OF TREATING MOOD DISORDERS” (priority 2021, published 2023).
Read-outs that look alike come from different tables or passages of the source.

Legend:
[1] = target: T1, 5-HT2A receptor (Homo sapiens, UniProt P28223); assay: biochemical; type: binding; settings: 1 nM [^3H]ketanserin, HEK293 stable cell line; read-out: 5-HT2A Receptor Ki (nM) ([^3H]ketanserin)
T1 construct: host or cells: HEK293
Summary of the method: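 Affinity was measured in radioligand binding experiments using [^3H]ketanserin as the labelled ligand, following methods adapted from published procedures.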

[2] = target: T1, 5-HT2A receptor; assay: cell-based; type: cell-based; settings: Ca^2+ flux, agonist; read-out: 5-HT2A EC50
[3] = target: T2, 5-HT1A receptor (Homo sapiens, UniProt P08908); assay: cell-based
T2 construct: host or cells: CHO cells
T2 sequence (P08908 1-422): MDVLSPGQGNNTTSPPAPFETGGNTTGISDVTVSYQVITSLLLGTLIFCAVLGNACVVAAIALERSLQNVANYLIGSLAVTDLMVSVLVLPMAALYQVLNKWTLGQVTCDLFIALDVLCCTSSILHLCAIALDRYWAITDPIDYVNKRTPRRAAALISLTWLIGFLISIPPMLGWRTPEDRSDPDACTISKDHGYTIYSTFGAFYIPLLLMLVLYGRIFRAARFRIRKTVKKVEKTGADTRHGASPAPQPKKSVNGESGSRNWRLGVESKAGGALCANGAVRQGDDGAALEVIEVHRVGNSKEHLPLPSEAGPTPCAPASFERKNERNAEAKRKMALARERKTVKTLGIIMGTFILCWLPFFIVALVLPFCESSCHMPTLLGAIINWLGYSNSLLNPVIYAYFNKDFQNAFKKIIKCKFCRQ

[4] = target: T3, 5-HT2B receptor (Homo sapiens, UniProt P41595); assay: cell-based; settings: Ca^2+ flux, agonist; read-out: 5-HT2B EC50
T3 construct: host or cells: HEK293

[5] = target: T4, human 5-HT2C receptor (Homo sapiens, UniProt P28335); assay: cell-based; settings: Ca^2+ flux, agonist
T4 sequence (P28335 33-458): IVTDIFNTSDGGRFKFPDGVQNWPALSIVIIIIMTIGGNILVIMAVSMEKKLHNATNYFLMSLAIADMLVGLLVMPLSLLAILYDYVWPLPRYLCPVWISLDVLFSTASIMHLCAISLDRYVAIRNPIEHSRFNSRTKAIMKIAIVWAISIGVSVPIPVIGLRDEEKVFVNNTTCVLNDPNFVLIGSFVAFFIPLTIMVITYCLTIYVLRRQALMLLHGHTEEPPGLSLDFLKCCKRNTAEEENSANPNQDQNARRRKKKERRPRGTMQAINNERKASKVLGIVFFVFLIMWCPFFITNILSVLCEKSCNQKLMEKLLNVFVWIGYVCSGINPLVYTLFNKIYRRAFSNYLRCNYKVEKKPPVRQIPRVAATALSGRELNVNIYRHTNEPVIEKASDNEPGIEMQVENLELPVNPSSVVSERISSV

[6] = target: T1, 5-HT2A receptor; assay: PathHunter beta-arrestin recruitment assay at 5-HT2A; type: cell-based; settings: for agonist type in arrestin recruitment assay (in words) / Emax: 5-HT2A beta-arrestin
Experimental: The degree of arrestin bias varied substantially across the other compounds tested as well.
Arrestin Functional Assay at 5-HT2A. Recruitment of beta-arrestin was determined using a PathHunter assay at Eurofins DiscoverX (Fremont, Calif.) according to their standard protocols. PathHunter GPCR beta-arrestin assays take advantage of DiscoverX's proprietary Enzyme Fragment Complementation technology. The GPCR is fused in frame with a small enzyme donor fragment ProLink™ (PK) and co-expressed in cells stably expressing a fusion protein of beta-arrestin and the larger, N-terminal deletion mutant of beta-galactosidase. Activation of the GPCR (5-HT2A receptor in this case) stimulates binding of beta-arrestin to the PK-tagged GPCR and forces complementation of the two enzyme fragments, resulting in the formation of an active beta-galactosidase enzyme. This interaction leads to an increase in enzyme activity that can be measured using chemiluminescent PathHunter Detection Reagents. Briefly, PathHunter cells expressing 5-HT2A receptors were seeded in a volume of 20 μL into 384-well plates and incubated at 37° C. for the appropriate time prior to testing. […] Plates were then imaged on a microplate reader and the agonist activity was calculated using the following formula: % Activity=100%×(mean RLU of test sample−mean RLU of vehicle control)/(mean MAX control ligand−mean RLU of vehicle control), where RLU=relative light units.

[7] = tested on: C57BL/6 mice; assay: Head twitch response (HTR) in mice; type: in vivo, mouse; settings: SC; for ED50: 20 min, read-out: ED50 (95% CI); for ED50 / Most Efficacious Dose / Emax (95% CI): mouse HTR; for ED50 / Emax (95% CI): 20 min observation, curve fit, poor in some cases
Experimental: Agonists of the 5-HT2A receptor are well known to induce this effect in rodents and the potency of this HTR is correlated with hallucinogenic potency in humans.
Animals. Adult male C57BL/6 mice, aged 6-8 weeks (body weight 20-25 g) were used in this experiment. Animals were housed under controlled temperatures and 12-hour light/dark cycles (lights on between 07:00-19:00 h), with ad libitum food and water. This study was carried out in strict accordance with the requirements of the Committee for the Purpose of Control and Supervision of Experiments on Animals (CPCSEA), India. All efforts were made to minimize suffering.
Drugs and Drug Administration. Compound 1 was synthesized as described above. It was administered subcutaneously (SC) dissolved in saline vehicle at a volume of 10 mL/kg. Five doses were tested, with n=6 animals/group. Doses were calculated on the basis of the freebase.
Procedure. Mice were administered one dose of the drug and immediately placed into a small open field for behavioral observation. Animals were observed continuously for 20 mins and the number of head twitches (HTs) were counted by an observer blind to the treatment condition.
Statistical Analysis. The data points shown are the mean±standard error of the mean (SEM). Analysis was performed using GraphPad Prism 6. Curves were fit using a non-linear gaussian distribution to calculate ED50 and Emax values.
Additional disclosed compounds were tested in the mouse head twitch response (HTR) assay according to the procedure described in Example 43. […] Lastly, compounds with much larger benzyl and phenethyl substituents on the amine nitrogen (e.g., 10 and 11) were low efficacy in this assay, consistent with their lower maximal efficacy in the arrestin functional assay (see Example 41).

[8] = Metabolic stability in human liver microsomes (HLM); type: in vitro ADME; settings: for t1/2: 1 μM, 0.50 mg protein per mL
Excerpt: HLM Stability. Pooled HLM from adult male and female donors (Corning 452117) were used.

[9] = Metabolic stability in mouse liver microsomes (MLM); type: in vitro ADME; settings: 0.50 mg protein per mL; for t1/2: MLM (CD-1), 1 μM
Excerpt: MLM Stability Pooled MLM from CD-1 mice (BIOIVT M00501) were used.

[10] = Metabolic stability in rat liver microsomes (RLM); settings: for t1/2: RLM, 0.50 mg protein per mL
[11] = Ca^2+ flux, agonist, read-out: 5-HT1A EC50
[12] = both sexes, human, pooled human liver microsomes, pH 7.4, 0.50 mg protein per mL
[13] = mouse, pooled mouse liver microsomes, pH 7.4, MLM (CD-1)
[14] = both, rat, pooled rat liver microsomes, pH 7.4

T1 sequence (P28223 whole entry): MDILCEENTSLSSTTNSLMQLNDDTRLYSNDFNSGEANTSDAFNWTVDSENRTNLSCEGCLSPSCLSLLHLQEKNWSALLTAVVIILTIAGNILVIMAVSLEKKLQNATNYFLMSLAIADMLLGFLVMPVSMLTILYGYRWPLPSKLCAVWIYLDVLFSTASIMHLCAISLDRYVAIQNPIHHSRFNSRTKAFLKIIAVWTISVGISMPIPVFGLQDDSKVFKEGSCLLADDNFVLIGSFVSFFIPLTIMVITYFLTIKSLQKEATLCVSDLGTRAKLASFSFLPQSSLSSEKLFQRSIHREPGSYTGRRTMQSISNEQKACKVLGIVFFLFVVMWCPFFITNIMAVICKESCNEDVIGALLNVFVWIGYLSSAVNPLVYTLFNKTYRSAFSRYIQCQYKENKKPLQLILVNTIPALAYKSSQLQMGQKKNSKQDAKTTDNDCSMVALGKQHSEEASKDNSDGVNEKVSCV
T3 sequence (P41595 whole entry): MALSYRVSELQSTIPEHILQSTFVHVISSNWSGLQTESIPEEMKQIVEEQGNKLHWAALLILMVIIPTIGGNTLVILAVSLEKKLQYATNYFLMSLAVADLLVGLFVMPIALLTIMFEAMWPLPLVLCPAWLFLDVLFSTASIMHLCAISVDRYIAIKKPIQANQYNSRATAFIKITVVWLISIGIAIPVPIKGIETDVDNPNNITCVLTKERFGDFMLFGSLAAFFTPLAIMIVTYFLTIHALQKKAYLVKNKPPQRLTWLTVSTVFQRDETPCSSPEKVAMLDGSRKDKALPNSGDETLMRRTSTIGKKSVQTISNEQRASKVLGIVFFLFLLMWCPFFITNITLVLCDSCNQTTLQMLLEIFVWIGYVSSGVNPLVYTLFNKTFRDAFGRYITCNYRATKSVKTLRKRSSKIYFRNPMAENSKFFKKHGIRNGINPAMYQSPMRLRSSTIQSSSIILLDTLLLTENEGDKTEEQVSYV

Structure (SMILES) | Ki [1] [nM] | EC50 [2] [nM] | EC50 [3, 11] [nM] | EC50 [4] [nM] | EC50 [5] [nM] | EC50 [6] [nM] | agonist type in arrestin recruitment assay (in words) [6] | ED50 [7] [mg/kg] | Most Efficacious Dose [7] [mg/kg] | Emax (95% CI) [7] | microsomal CLint at 1 μM [8, 12] [µL/min/mg] | microsomal CLint at 1 μM [9, 13] [µL/min/mg] | microsomal CLint at 1 μM [10, 14] [µL/min/mg] | t1/2 [8] [min] | t1/2 [9] [min] | t1/2 [10] [min] | Emax [6] [%] | other results
CC[C@@H](C)NC(=O)[C@@H]1C=C2c3cccc4[nH]cc(c34)C[C@H]2N(CC)C1 [Compound 5, (6aR,9R)—N—((R)-sec-butyl)-7-ethyl-4,6,6a,7,8,9-hexahydroindolo[4,3-fg]quinoline-9-carboxamide] | 2.18 | 0.718 | 0.96 | 35.4 | 1.29 | 1.92 | full agonists | 0.0306 | 0.32 | 15.22 (11.77-19.03) | 62.3 | 170 | 72 |  |  |  |  | half-life at 1 μM [8, 12]: 22.2 min; half-life at 1 μM [9, 13]: 8.1 min; half-life at 1 μM [10, 14]: 19.3 min
CCC[C@@H](C)NC(=O)[C@@H]1C=C2c3cccc4[nH]cc(c34)C[C@H]2N(CCC)C1 [Compound 7, (6aR,9R)—N—((R)-pentan-2-yl)-7-propyl-4,6,6a,7,8,9-hexahydroindolo[4,3-fg]quinoline-9-carboxamide] | 0.85 | 13.2 | 12.8 | 364 | 1.99 | 1.6 | full agonists | 58.9 | 1 | 720.4 (???-???) | 840 | 2560 | 860 | 1.65 | 0.541 | 1.612 |  | 
C=CCN1C[C@H](C(=O)N[C@H](C)CC)C=C2c3cccc4[nH]cc(c34)C[C@H]21 [Compound 8, (6aR,9R)-7-allyl-N—((R)-sec-butyl)-4,6,6a,7,8,9-hexahydroindolo[4,3-fg]quinoline-9-carboxamide] | 2.38 | 0.678 | 2.53 | 22.2 | 4.05 | 1.71 | full agonists | 0.0282 | 1 | 12.03 (9.571-14.68) | 174 | 377 | 180 | 7.9 | 3.7 | 7.7 |  | 
CC[C@@H](C)NC(=O)[C@@H]1C=C2c3cccc4[nH]cc(c34)C[C@H]2N(C)C1 [Int8, (6aR,9R)—N—((R)-sec-butyl)-7-methyl-4,6,6a,7,8,9-hexahydroindolo[4,3-fg]quinoline-9-carboxamide] | 1.07 | 10.3 | 9.69 | 71.9 | 7.32 | 4.05 | partial agonists | 0.106 | 1 | 14.34 (10.41-31.47) | 21.3 | 34.7 | 13.9 | 64.9 | 39.9 | 99.5 | < 60 | 
CCC(CC)NC(=O)[C@@H]1C=C2c3cccc4[nH]cc(c34)C[C@H]2N(C)C1 [Int14, (6aR,9R)-7-methyl-N-(pentan-3-yl)-4,6,6a,7,8,9-hexahydroindolo[4,3-fg]quinoline-9-carboxamide] | 0.47 | 15.9 |  | > 10000 | 3.63 | 1.48 | partial agonists | 1.47 | 1 | 21.63 (10.59-???) | 78.8 | 228 | 36.5 | 17.593 | 6.07 | 37.988 | < 60 | EC50 [3]: 46 nM
CCC[C@@H](C)NC(=O)[C@@H]1C=C2c3cccc4[nH]cc(c34)C[C@H]2N(C)C1 [Int17, (6aR,9R)-7-methyl-N—((R)-pentan-2-yl)-4,6,6a,7,8,9-hexahydroindolo[4,3-fg]quinoline-9-carboxamide] | 0.41 | 9.67 | 7.01 | 70.8 | 2.53 | 1.19 | partial agonists | 0.00405 | 0.32 | 4.96 (3.764-6.286) | 87.4 | 168 | 49.7 | 15.865 | 8.252 | 27.894 | < 60 | # HTR at Most Efficacious Dose ([7]; mouse, head twitches in 20 min): 6.0
CCC[C@@H](C)NC(=O)[C@H]1C=C2c3cccc4[nH]cc(c34)C[C@H]2N(C)C1 [Int17a, (6aR,9S)-7-methyl-N—((R)-pentan-2-yl)-4,6,6a,7,8,9-hexahydroindolo[4,3-fg]quinoline-9-carboxamide] | 41.3 | 425 | 266 | > 10000 | 962 | 75.8 |  |  |  |  | 303 | 880 | 707 | 4.578 | 1.576 | 1.961 |  | 
